This passage reports IC50 results from ChEMBL document CHEMBL1150537, “Synthesis of echiguanine analogs and their ribofuranosyl glycosides that inhibit phosphatidylinositol 4-kinase” (Bioorg Med Chem Lett, 1997).

Structures are written as SMILES. Converted amounts (≈) assume the structure as drawn. Where only a bound is given, the exact number is not on record here.

Broadly, the IC50 is the midpoint of a concentration-inhibition curve. Low readings indicate greater potency in that assay, high ones weaker potency in that assay.

In the first assay the target is T1, Phosphatidylinositol 4-kinase, PI4K (Homo sapiens, UniProt Q9BTU6+Q8TCG2+Q9UBF8+P42356). Put plainly: Inhibition of Phosphatidylinositol 4-kinase of human epidermoid carcinoma A431 cells (Not prepared). The format is cell-based. The settings on record: a-431.
As to `NC(=O)NCCCNC(=O)c1c[nH]c2nc(N)nc(O)c12`, the IC50 result is “Not prepared”.
The same measure, in the same setting: the value for `N=C(S)CCNC(=O)c1c[nH]c2nc(N)nc(O)c12` was “Not prepared”.

In the next assay the target is T1, Phosphatidylinositol 4-kinase, PI4K. Put plainly: Inhibition of Phosphatidylinositol 4-kinase of human epidermoid carcinoma A431 cells. The settings on record: a-431. Format: cell-based.
`N#CCCNC(=O)c1c[nH]c2nc(N)nc(O)c12` yielded a concentration for half-maximal inhibition (IC50) of 0.45 µg/mL (≈ 1.83 µM).
In turn, `N=C(N)NCCCNC(=O)c1c[nH]c2nc(N)nc(O)c12` yielded an IC50 of 0.15 µg/mL (≈ 0.513 µM).
Same read-out and setting: for `NC(=O)CCNC(=O)c1c[nH]c2nc(N)nc(O)c12` the value was 0.02 µg/mL (≈ 0.0757 µM).
Same read-out and setting: for `COC(=O)CCNC(=O)c1c[nH]c2nc(N)nc(O)c12` the value was 0.3 µg/mL (≈ 1.07 µM); for `N=C(N)CCNC(=O)c1cn(C2O[C@H](CO)C(O)[C@H]2O)c2nc(N)nc(O)c12` (single isomer, unassigned), 100 µg/mL (≈ 253 µM).
`NCCCNC(=O)c1cn(C2O[C@H](CO)C(O)[C@H]2O)c2nc(N)nc(O)c12` (single isomer, unassigned) returned an IC50 of more than 100 µg/mL.
In turn, `N=C(S)CCNC(=O)c1cn(C2O[C@H](CO)C(O)[C@H]2O)c2nc(N)nc(O)c12` (single isomer, unassigned) displayed an IC50 of more than 100 µg/mL.
On the same count and under the same terms, the value for `NC(=O)CCNC(=O)c1cn(C2O[C@H](CO)C(O)[C@H]2O)c2nc(N)nc(O)c12` (single isomer, unassigned) was 2.4 µg/mL (≈ 6.06 µM); that for `NC(=O)NCCCNC(=O)c1cn(C2O[C@H](CO)C(O)[C@H]2O)c2nc(N)nc(O)c12` (single isomer, unassigned) was 1 µg/mL (≈ 2.35 µM); that for `N=C(N)NCCCNC(=O)c1cn(C2O[C@H](CO)C(O)[C@H]2O)c2nc(N)nc(O)c12` (single isomer, unassigned) was 7.5 µg/mL (≈ 17.7 µM).
Same read-out and setting: for `COC(=O)CCNC(=O)c1cn(C2O[C@H](CO)C(O)[C@H]2O)c2nc(N)nc(O)c12` (single isomer, unassigned) the value was 25 µg/mL (≈ 60.8 µM); for `N#CCCNC(=O)c1cn(C2O[C@H](CO)C(O)[C@H]2O)c2nc(N)nc(O)c12` (single isomer, unassigned), more than 100 µg/mL; for `NCCCNC(=O)c1c[nH]c2nc(N)nc(O)c12` [ECHIGUANINE B], 0.18 µg/mL (≈ 0.719 µM).
